Experimental data from patent US20180148418A1, “AMIDO-SUBSTITUTED CYCLOHEXANE DERIVATIVES” (Bayer Pharma Aktiengesellschaft, priority 2015, published 2018).

How the values were obtained:
[1] = system: HEK293 cells cotransfected with the FOP control vector; experiment: HEK293 FOP assay (control reporter with non-functional TCF elements); type: cell-based; details: Homo sapiens, 16 hours
Method in brief: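 Compound series from 50 μM down to 15 nM, prediluted in DMSO then 50-fold into CAFTY buffer (pH 7.4, 2 mM Ca2+, 0.01% BSA), tested alongside TOP cells on a Geneticin-selected HEK293 FOP line whose TCF elements are replaced by a random sequence; recombinant human Wnt-3a applied at 2500-5 ng/ml.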

TNKS2 = target: T1, TNKS2 (Homo sapiens, UniProt Q9H2K2); experiment: TNKS2 Assay B (auto-parsylation, [3H]-NAD+ SPA); type: biochemical; details: 6 nM TNKS2, auto-parsylation, over night at room temperature
T1 construct: purchased BPS Bioscience, San Diego, USA 80572 (TNKS2 Histone Ribosylation Assay Kit)
T1 sequence (Q9H2K2 1-1166): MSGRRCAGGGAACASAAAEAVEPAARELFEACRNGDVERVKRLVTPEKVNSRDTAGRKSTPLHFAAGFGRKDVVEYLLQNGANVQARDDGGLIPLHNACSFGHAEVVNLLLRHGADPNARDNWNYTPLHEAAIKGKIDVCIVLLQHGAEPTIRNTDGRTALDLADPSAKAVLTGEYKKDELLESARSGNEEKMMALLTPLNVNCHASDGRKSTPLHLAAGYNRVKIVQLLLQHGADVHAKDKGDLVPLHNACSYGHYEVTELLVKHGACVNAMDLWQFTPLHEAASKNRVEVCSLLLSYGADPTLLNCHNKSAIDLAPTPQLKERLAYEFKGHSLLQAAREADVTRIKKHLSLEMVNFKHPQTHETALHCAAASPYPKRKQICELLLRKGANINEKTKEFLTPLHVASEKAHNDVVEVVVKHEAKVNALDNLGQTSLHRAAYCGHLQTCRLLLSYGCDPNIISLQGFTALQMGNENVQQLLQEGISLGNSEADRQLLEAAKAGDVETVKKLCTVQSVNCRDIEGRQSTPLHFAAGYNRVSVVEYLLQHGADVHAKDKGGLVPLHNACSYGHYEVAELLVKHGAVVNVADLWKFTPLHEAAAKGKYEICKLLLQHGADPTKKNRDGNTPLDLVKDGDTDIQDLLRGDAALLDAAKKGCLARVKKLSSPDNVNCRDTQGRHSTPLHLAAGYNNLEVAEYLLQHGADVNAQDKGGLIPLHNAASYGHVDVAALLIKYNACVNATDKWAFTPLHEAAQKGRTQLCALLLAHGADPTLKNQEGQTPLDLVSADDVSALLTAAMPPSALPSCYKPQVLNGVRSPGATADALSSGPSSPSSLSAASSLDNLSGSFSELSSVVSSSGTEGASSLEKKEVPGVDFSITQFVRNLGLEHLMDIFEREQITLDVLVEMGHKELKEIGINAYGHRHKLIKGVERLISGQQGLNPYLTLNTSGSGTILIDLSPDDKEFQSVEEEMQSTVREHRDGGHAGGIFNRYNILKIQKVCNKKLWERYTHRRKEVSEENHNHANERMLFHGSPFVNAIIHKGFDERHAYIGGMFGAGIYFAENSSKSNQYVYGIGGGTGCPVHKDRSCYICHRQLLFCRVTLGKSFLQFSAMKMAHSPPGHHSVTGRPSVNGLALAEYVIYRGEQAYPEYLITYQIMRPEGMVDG

| IC50 (TNKS2) [µM] | Structure (SMILES) | IC50 [1] [µM] |
| --- | --- | --- |
| 0.28 | Cc1cc(C)n2ncc(C(=O)N[C@H]3CC[C@@]4(CCN(c5cccc(Cl)c5)C4=O)CC3)c2n1 [Example 270, N-[(trans)-2-(3-chlorophenyl)-1-oxo-2-azaspiro[4.5]dec-8-yl]-5,7-dimethylpyrazolo[1,5-a]pyrimidine-3-carboxamide] | ≥ 50 |
| 0.27 | O=C(N[C@H]1CC[C@@]2(CCN(c3ccc(F)cc3Cl)C2=O)CC1)c1[nH]cnc1C(=O)N1CCN(CC(F)(F)F)CC1 [Example 167, N-[(trans)-2-(2-chloro-4-fluorophenyl)-1-oxo-2-azaspiro[4.5]dec-8-yl]-4-{[4-(2,2,2-trifluoroethyl)piperazin-1-yl]carbonyl}-1H-imidazole-5-carboxamide] | ≥ 50 |
| 0.33 | C[C@]1(C(=O)Nc2ccc(F)cc2Cl)CC[C@H](NC(=O)c2cnn3cccnc23)CC1 [Example 179, N-{trans-4-[(2-chloro-4-fluorophenyl)carbamoyl]-4-methylcyclohexyl}pyrazolo[1,5-a]pyrimidine-3-carboxamide] | ≥ 50 |
| 0.014 | Cc1cc(C)n2ncc(C(=O)N[C@H]3CC[C@H](C(=O)Nc4cnccc4Cl)CC3)c2n1 [Example 169, N-{trans-4-[(4-chloropyridin-3-yl)carbamoyl]cyclohexyl}-5,7-dimethylpyrazolo[1,5-a]pyrimidine-3-carboxamide] | ≥ 50 |
| 0.23 | O=C(N[C@H]1CC[C@@]2(CCN(c3cccc(Cl)c3)C2=O)CC1)c1cnn2cccnc12 [Example 268, N-[(trans)-2-(3-chlorophenyl)-1-oxo-2-azaspiro[4.5]dec-8-yl]pyrazolo[1,5-a]pyrimidine-3-carboxamide] | ≥ 50 |
| 0.0074 | NC(=O)c1nc[nH]c1C(=O)N[C@H]1CC[C@@]2(CCN(c3ccc(F)cc3Cl)C2=O)CC1 [Example 186, N^5-[(trans)-2-(2-chloro-4-fluorophenyl)-1-oxo-2-azaspiro[4.5]dec-8-yl]-1H-imidazole-4,5-dicarboxamide] | ≥ 50 |
| 3.2 | Cc1cc(C)n2ncc(C(=O)N[C@H]3CC[C@]4(CCN(c5ccc(F)cc5)C4=O)CC3)c2n1 [Example 208, N-[(cis)-2-(4-fluorophenyl)-1-oxo-2-azaspiro[4.5]dec-8-yl]-5,7-dimethyl pyrazolo[1,5-a]pyrimidine-3-carboxamide] | ≥ 50 |
| 0.0033 | O=C(N[C@H]1CC[C@@]2(CCN(c3ccc(F)cc3Cl)C2=O)CC1)c1cnn2ccc(N3CCCC3)nc12 [Example 232, N-[(trans)-2-(2-chloro-4-fluorophenyl)-1-oxo-2-azaspiro[4.5]dec-8-yl]-5-(pyrrolidin-1-yl)pyrazolo[1,5-a]pyrimidine-3-carboxamide] | ≥ 50 |
| > 10 | CNC(=O)c1[nH]cnc1C(=O)N[C@H]1CC[C@@](C)(C(=O)Nc2ccc(F)cc2Cl)CC1 [Example 181, N^4-{cis-4-[(2-chloro-4-fluorophenyl)carbamoyl]-4-methylcyclohexyl}-N^5-methyl-1H-imidazole-4,5-dicarboxamide] | 24 |
| 0.0029 | COCCNC(=O)c1nc[nH]c1C(=O)N[C@H]1CC[C@@]2(CCN(c3cc(F)c(F)cc3Cl)C2=O)CC1 [Example 202, N^5-[(trans)-2-(2-chloro-4,5-difluorophenyl)-1-oxo-2-azaspiro[4.5]dec-8-yl]-N^4-(2-methoxyethyl)-1H-imidazole-4,5-dicarboxamide] | 39 |
| 0.0048 | Cc1cc(N2CC[C@]3(CC[C@@H](NC(=O)c4cnc5cccnn45)CC3)C2=O)c(Cl)cc1F [Example 265, N-[(trans)-2-(2-chloro-4-fluoro-5-methylphenyl)-1-oxo-2-azaspiro[4.5]dec-8-yl]imidazo[1,2-b]pyridazine-3-carboxamide] | ≥ 50 |
| > 10 | O=C(N[C@H]1CC[C@H](C(=O)Nc2ccc(F)cc2Cl)CC1)c1cnc2ccccn12 [Example 206, N-{trans-4-[(2-chloro-4-fluorophenyl)carbamoyl]cyclohexyl}imidazo[1,2-a]pyridine-3-carboxamide] | 25 |
| 0.24 | O=C(N[C@H]1CC[C@@]2(CCN(c3ccc(F)cc3)C2=O)CC1)c1cnn2cccnc12 [Example 209, N-[(trans)-2-(4-fluorophenyl)-1-oxo-2-azaspiro[4.5]dec-8-yl]pyrazolo[1,5-a]pyrimidine-3-carboxamide] | ≥ 50 |
| 0.15 | CNC(=O)c1nc[nH]c1C(=O)N[C@H]1CC[C@H](C(=O)N(C)c2ccccc2)CC1 [Example 171, N^4-methyl-N^5-{trans-4-[methyl(phenyl)carbamoyl]cyclohexyl}-1H-imidazole-4,5-dicarboxamide] | ≥ 50 |
| 0.4 | CC1CN(C(=O)c2nc[nH]c2C(=O)N[C@H]2CC[C@@]3(CCN(c4ccc(F)cc4Cl)C3=O)CC2)CCS(=O)(=O)C1 (stereo partly drawn) [Example 183, N-[(trans)-2-(2-chloro-4-fluorophenyl)-1-oxo-2-azaspiro[4.5]dec-8-yl]-4-[(6-methyl-1,1-dioxido-1,4-thiazepan-4-yl)carbonyl]-1H-imidazole-5-carboxamide] | ≥ 50 |
| 0.012 | O=C(N[C@H]1CC[C@@]2(CCN(c3ccccc3Cl)C2=O)CC1)c1cnn2cccnc12 [Example 256, N-[(trans)-2-(2-chlorophenyl)-1-oxo-2-azaspiro[4.5]dec-8-yl]pyrazolo[1,5-a]pyrimidine-3-carboxamide] | ≥ 50 |
| 0.17 | O=C(NC1CC1)c1nc[nH]c1C(=O)N[C@H]1CC[C@@]2(CCN(c3cccc(Cl)c3)C2=O)CC1 [Example 279, N^5-[(trans)-2-(3-chlorophenyl)-1-oxo-2-azaspiro[4.5]dec-8-yl]-N^4-cyclopropyl-1H-imidazole-4,5-dicarboxamide] | ≥ 50 |
| 0.0071 | O=C(N[C@H]1CC[C@@]2(CCN(c3ccc(F)cc3Cl)C2=O)CC1)c1nc[nH]c1C(=O)NCC(F)(F)F [Example 195, N^4-[(trans)-2-(2-chloro-4-fluorophenyl)-1-oxo-2-azaspiro[4.5]dec-8-yl]-N^5-(2,2,2-trifluoroethyl)-1H-imidazole-4,5-dicarboxamide] | ≥ 50 |
| 0.0063 | CCNC(=O)c1nc[nH]c1C(=O)N[C@H]1CC[C@@]2(CCN(c3ccccc3Cl)C2=O)CC1 [Example 258, N^5-[(trans)-2-(2-chlorophenyl)-1-oxo-2-azaspiro[4.5]dec-8-yl]-N^4-ethyl-1H-imidazole-4,5-dicarboxamide] | ≥ 50 |
| 0.0053 | O=C(N[C@H]1CC[C@@]2(CCN(c3ccc(F)cc3Cl)C2=O)CC1)c1cnn2cc(CCO)cnc12 [Example 214, N-[(trans)-2-(2-chloro-4-fluorophenyl)-1-oxo-2-azaspiro[4.5]dec-8-yl]-6-(2-hydroxyethyl)pyrazolo[1,5-a]pyrimidine-3-carboxamide] | ≥ 50 |
| 0.0021 | CCNC(=O)c1nc[nH]c1C(=O)N[C@H]1CC[C@@]2(CCN(c3cc(F)c(F)cc3Cl)C2=O)CC1 [Example 197, N^5-[(trans)-2-(2-chloro-4,5-difluorophenyl)-1-oxo-2-azaspiro[4.5]dec-8-yl]-N^4-ethyl-1H-imidazole-4,5-dicarboxamide] | 19 |
| 0.0017 | CN(C)c1ccn2ncc(C(=O)N[C@H]3CC[C@@]4(CCN(c5ccc(F)cc5Cl)C4=O)CC3)c2n1 [Example 217, N-[(trans)-2-(2-chloro-4-fluorophenyl)-1-oxo-2-azaspiro[4.5]dec-8-yl]-5-(dimethylamino)pyrazolo[1,5-a]pyrimidine-3-carboxamide] | ≥ 50 |
| 0.15 | CCNC(=O)c1nc[nH]c1C(=O)N[C@H]1CC[C@@]2(CCN(c3cccc(Cl)c3)C2=O)CC1 [Example 277, N^5-[(trans)-2-(3-chlorophenyl)-1-oxo-2-azaspiro[4.5]dec-8-yl]-N^4-ethyl-1H-imidazole-4,5-dicarboxamide] | 31 |
